Values joined by “and” are separate entries in the source; they are usually repeats but may differ in a detail not shown here. Equal entries are not always repeated.
Settings: Crystal, Closed cell (Static) method

c1ccc2ccccc2c1 [naphthalene]
Settings	vapor or sublimation pressure
258.48 K	0.00011 kPa
258.49 K	0.00011 kPa
263.48 K	0.00022 kPa
263.49 K	0.00023 kPa
268.48 K	0.00042 kPa and 0.00041 kPa and 0.00043 kPa
273.48 K	0.00078 kPa and 0.00077 kPa
273.49 K	0.00078 kPa and 0.00077 kPa
273.68 K	0.0008 kPa and 0.00081 kPa
278.48 K	0.00137 kPa and 0.00138 kPa
278.49 K	0.00138 kPa [middle of 4 runs]
283.49 K	0.00241 kPa
288.49 K	0.00411 kPa and 0.0041 kPa
293.49 K	0.00688 kPa
298.49 K	0.0114 kPa and 0.0113 kPa
303.5 K	0.0183 kPa and 0.0182 kPa
308.51 K	0.029 kPa
313.52 K	0.0454 kPa and 0.0455 kPa

From the NIST ThermoML archive (doi:10.1021/je050216m)
